This series deals with rodent carcinogenicity bioassays, tumor incidence. The experiment in a line: CCRIS carcinogenicity studies. In short, it runs like this: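 NCI-built, expert-reviewed records of carcinogenicity and related test outcomes (mutagenicity, tumor promotion/inhibition) compiled from published and report sources, historical span 1985-2011, not updated.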

Activity calls are given as the source filed them. The rule behind the calls is not given here.

For the compound `COC(=O)c1ccc(CNS(C)(=O)=O)cc1S(=O)(=O)NC(=O)Nc1nc(OC)cc(OC)n1`, the carcinogen call runs as follows: (Species: Mouse, Strain/Sex: CD-1/Female (60/Group), Route: Oral, Dose: 0, 13.9, 129.8, 1356 mg/kg/day of 94.6-95.3% mesosulfuron-methyl in diet for 18 mo, study duration 18 mo, Dose: 0, 13.9, 129.8, 1356 mg/kg/day of 94.6-95.3% mesosulfuron-methyl in diet for 18 mo, study duration 18 mo) “inactive; negative”; (Species: Mouse, Strain/Sex: CD-1/Male (60/Group), Route: Oral, Dose: 0, 10.6, 102.8, 1069 mg/kg/day of 94.6-95.3% mesosulfuron-methyl in diet for 18 mo, study duration 18 mo, Dose: 0, 10.6, 102.8, 1069 mg/kg/day of 94.6-95.3% mesosulfuron-methyl in diet for 18 mo, study duration 18 mo) “inactive; negative”; (Species: Rat, Strain/Sex: Hoe:WISK(SPF71)/Female (50/Group), Route: Oral, Dose: 0, 9.39, 94.7, 952.3 mg/kg/day of 94.6% mesosulfuron-methyl in diet for 24 mo, study duration 24 mo, Dose: 0, 9.39, 94.7, 952.3 mg/kg/day of 94.6% mesosulfuron-methyl in diet for 24 mo, study duration 24 mo) “inactive; negative”; (Species: Rat, Strain/Sex: Hoe:WISK(SPF71)/Male (50/Group), Route: Oral, Dose: 0, 7.46, 73.8, 764.0 mg/kg/day of 94.6% mesosulfuron-methyl in diet for 24 mo, study duration 24 mo, Dose: 0, 7.46, 73.8, 764.0 mg/kg/day of 94.6% mesosulfuron-methyl in diet for 24 mo, study duration 24 mo) “inactive; negative”.
Turning to `[O]=[Cr](=[O])([OH])[O][Cr](=[O])(=[O])[OH]`, the carcinogen call is “active; positive, authors describe as clear evidence of carcinogenic activity” (Species: Mouse, Strain/Sex: B6C3F1/Female, Route: Oral, Dose: 0, 14.3, 57.3, 172, 516 mg/l of water, in drinking water for 2 yr (average daily dose of 0, 1.1, 3.9, 9, and 25 mg/kg), Tumor Site: Type of Lesion: Small intestine (duodenum, jejunum, ileum): Adenomas and carcinomas); “active; positive, authors describe as clear evidence of carcinogenic activity” (Species: Mouse, Strain/Sex: B6C3F1/Male, Route: Oral, Dose: 0, 14.3, 28.6, 85.7, 257.4 mg/l of water, in drinking water for 2 yr (average daily dose of 0, 1.1, 2.6, 7, and 17 mg/kg, Tumor Site: Type of Lesion: Small intestine (duodenum, jejunum, ileum): Adenomas and carcinomas); “active; positive, authors describe as clear evidence of carcinogenic activity” (Species: Rat, Strain/Sex: F344/N/Female, Route: Oral, Dose: 0, 14.3, 57.3, 172, 516 mg/l of water, in drinking water for 2 yr (average daily dose of 0, 0.7, 2.7, 7, and 20 mg/kg), Tumor Site: Type of Lesion: Mouth and tongue: Squamous cell papilloma and carcinoma); “active; positive, authors describe as clear evidence of carcinogenic activity” (Species: Rat, Strain/Sex: F344/N/Male, Route: Oral, Dose: 0, 14.3, 57.3, 172, 516 mg/l of water, in drinking water for 2 yr (average daily dose of 0, 0.6, 2.2, 6, and 17 mg/kg), Tumor Site: Type of Lesion: Mouth and tongue: Squamous cell papilloma and carcinoma).
Turning to `C=CCOC(=O)c1ccccc1C(=O)OCC=C`, the carcinogen call runs as follows: (Species: MOUSE, Strain/Sex: B6C3F1/FEMALE, Route: GAVAGE, Dose: 0, 150, 300 MG/KG IN CORN OIL FOR 5 D/WK FOR 103 WK (STUDY DURATION: 103 WK), Dose: 0, 150, 300 MG/KG IN CORN OIL FOR 5 D/WK FOR 103 WK (STUDY DURATION: 103 WK), Tumor Site: Type of Lesion: FORESTOMACH: SQUAMOUS CELL PAPILLOMA) “equivocal”; (Species: MOUSE, Strain/Sex: B6C3F1/MALE, Route: GAVAGE, Dose: 0, 150, 300 MG/KG IN CORN OIL FOR 5 D/WK FOR 103 WK (STUDY DURATION: 103 WK), Dose: 0, 150, 300 MG/KG IN CORN OIL FOR 5 D/WK FOR 103 WK (STUDY DURATION: 103 WK), Tumor Site: Type of Lesion: FORESTOMACH: SQUAMOUS CELL PAPILLOMA, HEMATOPOIETIC SYSTEM: LYMPHOMA) “equivocal”; (Species: RAT, Strain/Sex: F344/FEMALE, Route: GAVAGE, Dose: 0, 50, 100 MG/KG IN CORN OIL 5 D/WK FOR 103 WK (STUDY DURATION: 105 WK), Dose: 0, 50, 100 MG/KG IN CORN OIL 5 D/WK FOR 103 WK (STUDY DURATION: 105 WK), Tumor Site: Type of Lesion: HEMATOPOIETIC SYSTEM: MONONUCLEAR CELL LEUKEMIA) “equivocal”; (Species: RAT, Strain/Sex: F344/MALE, Route: GAVAGE, Dose: 0, 50, 100 MG/KG IN CORN OIL 5 D/WK FOR 103 WK (STUDY DURATION: 105 WK), Dose: 0, 50, 100 MG/KG IN CORN OIL 5 D/WK FOR 103 WK (STUDY DURATION: 105 WK)) “inactive; negative”.
Take `CN(C)CCN(C)N=O`: the carcinogen call was “active; positive” (Species: HAMSTER, Strain/Sex: SYRIAN/FEMALE, Route: INTRAGASTRIC, Dose: 0, 36 MG/ML CORN OIL/ETHYL ACETATE (2:1) SOLUTION ADMINISTERED AS 0.2 ML 1/WK FOR 61 WK (STUDY DURATION: 106 WK), Tumor Site: Type of Lesion: NASAL CAVITY: ADENOMA, ESOPHAGUS: CARCINOMA, PAPILLOMA); “active; positive” (Species: HAMSTER, Strain/Sex: SYRIAN/MALE, Route: INTRAGASTRIC, Dose: 0, 36 MG/ML CORN OIL/ETHYL ACETATE (2:1) SOLUTION ADMINISTERED AS 0.2 ML 1/WK FOR 61 WK (STUDY DURATION: 106 WK), Tumor Site: Type of Lesion: NASAL CAVITY: ADENOMA, CARCINOMA, LIVER: HEPATOCELLULAR TUMOR); “active; positive” (Species: RAT, Strain/Sex: F344/FEMALE, Route: GAVAGE, Dose: 0, 14, MG/WK FOR A TOTAL DOSE OF 2.2 MMOL (STUDY DURATION: 40 WK), Dose: 0, 14, MG/WK FOR A TOTAL DOSE OF 2.2 MMOL (STUDY DURATION: 40 WK), Tumor Site: Type of Lesion: ESOPHAGUS: TUMOR, NASAL MUCOSA: TUMOR); “active; positive” (Species: RAT, Strain/Sex: F344/FEMALE, Route: INTRAGASTRIC, Dose: 0, 36 MG/ML CORN OIL/ETHYL ACETATE (2:1) SOLUTION ADMINISTERED AS 0.2 ML 2/WK FOR 20 WK (STUDY DURATION: 38 WK), Tumor Site: Type of Lesion: NASAL CAVITY: ADENOMA, ESOPHAGUS: CARCINOMA, PAPILLOMA); “active; positive” (Species: RAT, Strain/Sex: F344/FEMALE, Route: INTRAVESICULAR, Dose: 0, 7 MG IN 0.2 ML ETHANOL: DEIONIZED WATER (1:3) 2/WK FOR 23 WK (TOTAL DOSE 2.5 NMOL) (STUDY DURATION: LIFESPAN), Tumor Site: Type of Lesion: ESOPHAGUS: TUMOR, NASAL MUCOSA: TUMOR); “active; positive” (Species: RAT, Strain/Sex: F344/MALE, Route: GAVAGE, Dose: 0, 14 MG/WK FOR A TOTAL DOSE OF 2.2 MMOL (STUDY DURATION: 40 WK), Tumor Site: Type of Lesion: ESOPHAGUS: TUMOR, NASAL MUCOSA: TUMOR). Moreover, the carcinogen call (Species: RAT, Strain/Sex: F344/MALE, Route: INTRAGASTRIC, Dose: 0, 36 MG/ML CORN OIL/ETHYL ACETATE (2:1) SOLUTION ADMINISTERED AS 0.2 ML 2/WK FOR 20 WK (STUDY DURATION: 38 WK), Tumor Site: Type of Lesion: NASAL CAVITY: ADENOMA, CARCINOMA, ESOPHAGUS: CARCINOMA, PAPILLOMA) is “active; positive” and the carcinogen call (Species: RAT, Strain/Sex: F344/MALE, Route: ORAL, Dose: 0, 144 MG/L DEIONIZED DRINKING WATER ADMINISTERED AS 80 ML/WK FOR 20 WK (STUDY DURATION: 38 WK), Tumor Site: Type of Lesion: NASAL CAVITY: ADENOMA, ESOPHAGUS: CARCINOMA, PAPILLOMA) was “active; positive”.
In the case of `CC(N)=S`, the carcinogen call is, setting by setting: (Species: MOUSE, Strain/Sex: SWISS, Route: ORAL, Dose: 0.03% IN DIET, Tumor Site: Type of Lesion: LIVER: CARCINOMA) “active; positive”; (Species: RAT, Strain/Sex: WISTAR/MALE,FEMALE, Route: ORAL, Dose: 0.032% IN DIET, Tumor Site: Type of Lesion: LIVER: BILE DUCT TUMOR, NOS) “active; positive”.

(Values after PubChem BioAssay AID1259411 (Chemical Carcinogenesis Research Information System (CCRIS), 2018).)
